Reference: patent US9925154B2 (Seattle Children's Hospital, priority 2011, dated 2018)
Counter-ions that a name gives are not always drawn. Like-named read-outs stand apart in the source and are kept apart here.

Key:
[1] = test system: Transglutaminase 2 (TGase2); test: TGase2 protein expression in UUO kidneys; format: in vivo, mice; conditions: 400 mg/kg or 600 mg/kg
Text: Transglutaminases (TGases) are a family of enzymes that catalyze the transamidation reaction between the γ-carboxyamide of a peptide-bound glutamine residue and the ϵ-amino group of a peptide-bound lysine residue or the primary amine group of a polyamine via forming a thioester acylenzyme intermediate at the active site cysteine. Thus, TGase activity produces cross-linked proteins or amine conjugates. One type of TGase, TGase2, acts to cross link ECM proteins, particularly Collagen III. Cross linking renders proteins resistant to degradation, which is thought to result in accelerated matrix deposition.

[2] = biological target: T1, TGase (Homo sapiens, UniProt P21980); conditions: in vitro, Jeon et al. 2004; cited from earlier work
T1 sequence (P21980 1-687): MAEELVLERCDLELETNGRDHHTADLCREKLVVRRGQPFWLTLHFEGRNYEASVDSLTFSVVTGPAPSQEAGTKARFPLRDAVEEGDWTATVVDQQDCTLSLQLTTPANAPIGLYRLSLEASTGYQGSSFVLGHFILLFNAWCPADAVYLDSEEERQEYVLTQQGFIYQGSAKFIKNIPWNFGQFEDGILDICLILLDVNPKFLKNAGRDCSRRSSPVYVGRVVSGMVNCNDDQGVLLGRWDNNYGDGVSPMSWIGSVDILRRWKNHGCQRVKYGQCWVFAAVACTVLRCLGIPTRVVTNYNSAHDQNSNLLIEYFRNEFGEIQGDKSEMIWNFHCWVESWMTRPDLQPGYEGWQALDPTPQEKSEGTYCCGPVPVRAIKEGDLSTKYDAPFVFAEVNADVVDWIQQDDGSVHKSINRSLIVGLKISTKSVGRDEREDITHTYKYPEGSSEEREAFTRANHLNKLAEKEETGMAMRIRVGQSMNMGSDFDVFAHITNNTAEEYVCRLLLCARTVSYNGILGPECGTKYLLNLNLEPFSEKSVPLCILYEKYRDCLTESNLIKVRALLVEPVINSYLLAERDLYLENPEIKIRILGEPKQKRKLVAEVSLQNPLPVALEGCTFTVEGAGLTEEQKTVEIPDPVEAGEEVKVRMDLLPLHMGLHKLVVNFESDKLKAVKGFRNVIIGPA

[3] = test system: Nox2, Nox4, and SOD1; test: Real-time qPCR of oxidant and anti-oxidant genes in UUO mice; format: in vivo; conditions: day 7 and day 14, qPCR (data not shown)
Text: In addition, there was no difference between cysteamine-treated and control mice in the modulation of the expression of the oxidant and anti-oxidant genes Nox2, Nox4, and SOD1 as determined by semi-quantitative real time qPCR at day 7 and day 14 (data not shown).

[4] = test system: α-SMA-positive myofibroblasts; test: α-SMA immunoperoxidase staining of UUO kidneys; format: in vivo, mice
Description: Myofibroblast activation and accumulation was examined after UUO by measuring the expression of α-smooth muscle actin (α-SMA), a marker of myofibroblast activation. Interstitial myofibroblasts are the primary matrix-producing cell in response to kidney injury. […] Cell proliferation was measured by counting BrdU positive cells using a monoclonal anti-BrdU antibody. Myofibroblast recruitment was quantified after immunoperoxidase staining using peroxidase-conjugated murine anti-human α-smooth muscle actin (α-SMA) 1A4 monoclonal antibody (Sigma).

[5] = delivery to the small intestine; cited from earlier work
[6] = test system: intracellular cystine (circulating white blood cells); conditions: cited from earlier work
[7] = test system: total kidney thiol content; test: Total kidney thiol content in UUO mice; format: in vivo
Description: In order to investigate the importance of total redox status during fibrotic injury, total kidney thiol content was measured as an indicator of antioxidant status.
UUO was performed on 8 week-old wild-type male mice on a C57BL6 background (n=5/group). […] The kidneys (obstructed and contralateral) were harvested at days 7, 14 and 21 after UUO. Tissue from contralateral and UUO kidneys was processed in antioxidant buffer and analyzed for total thiol content fluorometrically and normalized to protein content using a Measure-iT™ Thiol Assay Kit (Invitrogen).

[8] = test system: unilateral ureteral obstruction (UUO) kidneys; conditions: for severity of fibrosis as measured by total collagen content: day 14 after UUO
Description: Mice were sacrificed at day 14 after UUO and total renal collagen levels (μg hydroxyproline/mg) were measured. Total collagen in the tissue was calculated on the assumption that collagen contains 12.7% hydroxyproline by weight.

[9] = test system: TGF-β; test: Real-time PCR of profibrotic cytokines in UUO kidneys: TGF-β; format: in vivo; conditions: vs control mice; for down-regulation of TGF-β mRNA levels: day 14 after UUO
Description: (§1) The expression patterns of pro-inflammatory and pro-fibrotic cytokines were investigated at day 7 and day 14 in total kidney homogenate by semi-quantitative real time qPCR.
(§2) UUO was performed on 8 week-old wild-type male mice on a C57BL6 background. […] The kidneys (obstructed and contralateral) were harvested at day land day 14 after UUO.
(§3) Semi-quantitative real-time PCR was performed with specific primers to TGF-β and TGF-β receptor 1 genes using iCycler (Bio-Rad) with standard protocol. […] Semi-quantitative real-time PCR data was analyzed with REST software using both GAPDH and 18S as reference genes. Each sample was performed in triplicate. (‡P<0.05, †P<0.01).

[10] = test system: E-cadherin; test: E-cadherin immunoblotting in UUO mice; format: in vivo; conditions: treated UUO mice
Text: (§4) Cysteamine bitartrate, the bitartrate salt of cysteamine is known commercially as Cystagon®. […] Both doses were well-tolerated and measured serum levels of cysteamine were appropriate.

[11] = test system: procollagen I; test: ECM gene mRNA by real-time qPCR in UUO kidneys: procollagen I; format: in vivo, mice; conditions: 600 mg/kg
Description: (§5) Unilateral ureteral obstruction (UUO) was performed on 8 week-old wild-type male mice on a C57BL6 background. […] The kidneys were harvested at 3, 7, and 14 days after UUO.
(§6) Extracellular matrix (ECM) gene mRNA levels were measured by semiquantitative real-time PCR (qPCR) in both doses at 3, 7 and 14 days after UUO. Real-time qPCR) was performed with specific primers for collagen 1A1, collagen 3A1, fibronectin, and other profibrotic and proinflammatory genes using standard protocols. Semi-quantitative real-time qPCR data was analyzed with REST software using both GAPDH and 18S as reference genes. Reactions were run in triplicate, and mean threshold crossing cycle (Ct) values were compared. ‡P<0.05; †P<0.01.

[12] = test system: IL-1β, TNF-α, IL-6, Gal-3, and Endo180; test: Real-time qPCR of pro-inflammatory and pro-fibrotic cytokines in UUO kidneys; format: in vivo; conditions: day 14 after UUO, vs control mice
Description: as §1, §2

[13] = test system: F4/80-positive interstitial macrophages; test: F4/80 confocal staining of UUO kidneys; format: in vivo, mice
Description: UUO was performed on 8 week-old wild-type male mice on a C57BL6 background. […] The kidneys (obstructed and contralateral) were harvested at day land day 14 after UUO. Macrophage accumulation was analyzed by confocal staining using F4/80 rat anti-mouse macrophage monoclonal antibody (Serotec Ltd., Oxford, UK).

[14] = test system: TGF-β receptor 1; test: Real-time PCR of profibrotic cytokines in UUO kidneys: TGF-β receptor; format: in vivo; conditions: vs control mice; for down-regulation of TGF-β receptor mRNA levels: day 14 after UUO
Description: as §1, §2, §3

[15] = Plasma cysteamine levels by mass spectrometry; format: in vivo, mice; conditions: for plasma levels of cysteamine at the time of sacrifice: day 14 after UUO
Description: Plasma cysteamine levels were measured by mass spectrometry by the reference laboratory at UC San Diego that also runs most of the human samples for the North American patients with cystinosis.
Plasma levels were taken every hour during the evening (for 12 hours) and every four hours during the day (n=4/group).

[16] = test system: fibronectin; test: ECM gene mRNA by real-time qPCR in UUO kidneys: fibronectin; format: in vivo, mice; conditions: day 7 after UUO
Description: as §5, §6

[17] = test system: procollagen III; test: ECM gene mRNA by real-time qPCR in UUO kidneys: procollagen III; format: in vivo, mice; conditions: day 7 after UUO
Description: as §5, §6

[18] = test system: UUO kidneys; test: Total kidney collagen (hydroxyproline) in UUO kidneys; format: in vivo, mice; conditions: for reduction of total kidney collagen content: day 14 after UUO
Description: as §4
Unilateral ureteral obstruction (UUO) was performed on 8 week-old wild-type male mice on a C57BL6 background. […] Groups of mice (n=8-10 mice per group at each time-point) were studied 3, 7, 14, and 21 days after the onset of chronic injury induced by UUO.
Total collagen was measured as hydroxyproline concentration in hydrolysates extracted from frozen normal (unobstructed) and UUO kidney samples. […] Collagen reduction was confirmed by sirius red staining

[19] = test system: unilateral ureteral obstruction (UUO) kidneys; test: IP cysteamine HCL dose trial in UUO mice; format: in vivo
Description: Unilateral ureteral obstruction (UUO) was performed on ten mice.

[20] = high doses (600 mg/kg), day 7 after UUO

NCCS [cysteamine, β-mercaptoethylamine]
TGase2 protein expression in UUO kidneys [1]: no difference in TGase2 protein expression
TGase inhibition [2]: less potent inhibitor of TGase than both cystamine and primary amines
expression of oxidant and anti-oxidant genes Nox2, Nox4, and SOD1, treated vs control [3]: no difference
reduction in α-SMA-positive myofibroblasts ([4]; 400 mg/kg, day 7 after UUO): 38%
reduction in α-SMA-positive myofibroblasts ([4]; 400 mg/kg, day 14 after UUO): 24%
reduction in α-SMA-positive myofibroblasts ([4]; 600 mg/kg, day 7 after UUO): 47%
reduction in α-SMA-positive myofibroblasts ([4]; 600 mg/kg, day 14 after UUO): 33%
Cmax [5]: increases Cmax
area under the curve (AUC) [5]: increases area under the curve (AUC)
time to decrease in leukocyte cystine [5]: within an hour
lowering of leukocyte cystine levels ([6]; children with cystinosis, enteral administration (Dohil et al.)): prolonged efficacy in the lowering of leukocyte cystine levels
progression to kidney failure/transplantation ([6]; subjects with cystinosis, taken regularly): reduce the rate of progression to kidney failure/transplantation
depletion of intracellular cystine ([6]; taken regularly, measured in circulating white blood cells): up to 90%
total kidney thiol content in UUO kidney ([7]; 400 mg/kg or 600 mg/kg, day 7 after UUO): remained at levels close to that of the contralateral kidney
increase of total kidney thiol content ([7]; high dose (600 mg/kg), compared to controls): 36%

NCCS.O=C(O)C(O)C(O)C(=O)O (centres unmarked) [cysteamine bitartrate]
severity of fibrosis as measured by total collagen content ([8]; 400 mg/kg in drinking water): attenuated
severity of fibrosis as measured by total collagen content ([8]; 600 mg/kg in drinking water): attenuated
deaths or abnormal behavior ([8]; 200, 400, 600 mg/kg in drinking water, 14 days, even at high doses): No deaths or abnormal behavior was observed
down-regulation of TGF-β mRNA levels ([9]; 400 mg/kg): 47%
down-regulation of TGF-β mRNA levels ([9]; 600 mg/kg): 64%
up-regulation of TGF-β expression [9, 20]: approximately 60%
increase of E-cadherin levels (marker of tubular damage) [10]: 1.3 fold
reduction in procollagen I mRNA levels ([11]; day 7 after UUO): ~60%
procollagen I mRNA levels lower ([11]; day 14 after UUO): 56%
expression levels of IL-1β, TNF-α, IL-6, Gal-3, and Endo180 [12]: No difference
reduction in interstitial macrophage infiltration ([13]; 600 mg/kg/day, day 14 after UUO): 34%
interstitial macrophage infiltration, treated vs control ([13]; day 7 after UUO): No difference
down-regulation of TGF-β receptor mRNA levels ([14]; 400 mg/kg): 47%
down-regulation of TGF-β receptor mRNA levels ([14]; 600 mg/kg): 64%
up-regulation of TGF-β receptor expression [14, 20]: approximately 60%
reduction in α-SMA-positive myofibroblasts ([4]; 400 mg/kg, day 14 after UUO): ~30%
reduction in α-SMA-positive myofibroblasts ([4]; 600 mg/kg, day 14 after UUO): ~30%
plasma levels of cysteamine at the time of sacrifice ([15]; 400 mg/kg in drinking water): 0.81±0.091 Ilmole/L
plasma levels of cysteamine at the time of sacrifice ([15]; 600 mg/kg in drinking water): 1.04±0.151 Ilmole/L
serum levels of cysteamine, night vs day ([15]; C57BL/6 mice, 600 mg/kg in drinking water for 3 days): higher serum levels of cysteamine are achieved at night and lower levels during the day
reduction in kidney fibronectin mRNA levels ([16]; 400 mg/kg): ~40%
reduction in fibronectin mRNA levels ([16]; 600 mg/kg): ~60%
reduction in procollagen III mRNA levels ([17]; 400 mg/kg): ~40%
reduction in procollagen III mRNA levels ([17]; 600 mg/kg): ~60%
tolerability ([18]; 400 mg/kg/day and 600 mg/kg/day, UUO mice): well-tolerated
reduction of total kidney collagen content ([18]; 400 mg/kg/day in drinking water, vs untreated): 21%
reduction of total kidney collagen content ([18]; 600 mg/kg/day in drinking water, vs untreated): 21%
decrease in collagen levels ([18]; 600 mg/kg/day in drinking water, day 21 after UUO, vs untreated): 25%
collagen reduction by sirius red staining ([18]; UUO kidneys): confirmed
kidney collagen levels ([18]; both doses, 400 and 600 mg/kg/day, by day 14, P<0.01): statistically significant reductions
total collagen, treated vs control ([18]; day 7 after UUO): no difference

NCCS [cysteamine HCL]
total renal collagen levels (hydroxyproline) ([19]; 400 mg/kg dose group, daily IP, day 14 after UUO, compared to placebo (PBS)): decreased total collagen levels
deaths ([19]; IP, high dose levels): several mice died
adverse signs observed ([19]; mouse, in vivo, ip): Possible seizures and somnolence

NCCS [cysteamine bitartrate]
Cmax ([15]; read-out: Cmax levels of cysteamine, C57BL/6 mice, 600 mg/kg in drinking water for 3 days): 15 to 20 µM
